Data: patent publication US4493839A, “1-Carbapenem-3-carboxylic esters as anti-inflammatory agents” (Merck & Co., Inc., priority 1982, dated 1985)

Molecular target: T1, Human Polymorphonuclear Leukocyte Elastase (Homo sapiens, UniProt P08246)
T1 construct: Crude extract of human polymorphonuclear leukocytes (PMN) containing elastase activity; endogenous in cells; host or cells: human polymorphonuclear leukocytes (crude extract)
T1 sequence (P08246 30-247 limits assumed): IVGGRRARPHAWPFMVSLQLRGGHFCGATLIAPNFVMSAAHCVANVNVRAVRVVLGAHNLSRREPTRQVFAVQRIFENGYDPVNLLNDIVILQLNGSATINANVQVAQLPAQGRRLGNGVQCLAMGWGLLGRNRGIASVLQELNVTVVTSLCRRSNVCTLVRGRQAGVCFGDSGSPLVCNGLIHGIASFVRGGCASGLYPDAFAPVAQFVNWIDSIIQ
Test: Enzyme assay for the inhibition of human polymorphonuclear leukocyte elastase via hydrolysis of N-t-Boc-alanyl-alanyl-prolylalanine-p-nitroanilide
Assay type: biochemical
Conditions: measured within 2 minutes, crude PMN extract, 0.2 mM Boc-AAPAN, pH 7.5; for inhibition at 20 µg/mL: Conc. 20 μg/ml; for inhibition at 50 µg/mL: Conc. 50 μg/ml; for inhibition at 5 µg/mL: Conc. 5 μg/ml; for inhibition at 0.5 µg/mL: Conc. 0.5 μg/ml; for inhibition at 1 µg/mL: Conc. 1 μg/ml; for inhibition at 2 µg/mL: Conc. 2 μg/ml; for inhibition at 10 µg/mL: Conc. 10 μg/ml
Protocol: Protocol--Enzyme Assays for the Inhibition of Human Polymorphonuclear Leukocyte Elastase Via Hydrolysis of N-t-Boc-alanyl-alanyl-prolylalanine-p-nitroanilide
0.05M TES (N-tris[hydroxymethyl]methyl-2-amino-ethanesulfonic acid) Buffer, pH 7.5.
0.2 mM N-to-Boc-alanyl-alanyl-Prolyl-Alanine-p-nitroanilide (Boc-AAPAN).
To prepare substrate, the solid (m.w. 550) was first dissolved in 10.0 ml DMSO. Buffer at pH 7.5 was then added to a final volume of 100 ml.
Crude extract of human polymorphonuclear leukocytes (PMN) containing elastase activity.
Inhibitors (carbapenem esters) to be tested dissolved in DMSO just before use.
To 1.0 ml of 0.2 mM Boc-AAPAN in a cuvette, 0.01-0.1 ml of DMSO with or without inhibitor was added. After mixing, a measurement was taken at 410 mμ to detect any spontaneous hydrolysis due to presence of test compound. 0.05 Milliliters of PMN extract was then added and the ΔOD/min at 410 mμ was measured and recorded. Beckman model 35 spectrophotometer was used.
The elastase activity in the crude PMN extract may vary from one preparation to another. A control of each new batch is run, and the volume added in the assay procedure is adjusted according to activity.

Row | Structure (SMILES) | inhibition at 20 µg/mL | inhibition at 50 µg/mL | inhibition at 5 µg/mL | inhibition at 0.5 µg/mL | inhibition at 1 µg/mL | inhibition at 2 µg/mL | inhibition at 10 µg/mL
1 | CC=C1C(=O)N2C(C(=O)OCc3ccc([N+](=O)[O-])cc3)=C(SCCN3C(=O)c4ccccc4C3=O)CC12 (stereo not shown) | 47% | 73% |  |  |  |  | 
2 | CC(O)C1C(=O)N2C(C(=O)OCc3ccc([N+](=O)[O-])cc3)=C(SCc3ccccc3)CC12 (stereo not shown) | 50% | 75% |  |  |  |  | 
3 | CC(O)C1C(=O)N2C(C(=O)OCc3ccc([N+](=O)[O-])cc3)=C(SCc3ccccn3)CC12 (stereo not shown) | 100% |  | 63% |  |  |  | 
4 | CC(O)C1C(=O)N2C(C(=O)OCc3ccc([N+](=O)[O-])cc3)=C(Sc3ccncc3)CC12 (stereo not shown) | 100% |  | 93% | 21% | 72% |  | 
5 | CC(O)C1C(=O)N2C(C(=O)OCc3ccc([N+](=O)[O-])cc3)=C(SCCO)CC12 (stereo not shown) | 84% | 95% |  |  |  |  | 
6 | CC(OC(=O)OCc1ccccc1[N+](=O)[O-])C1C(=O)N2C(C(=O)OCc3ccccc3[N+](=O)[O-])=C(c3ccc(CN=[N+]=[N-])cc3)CC12 (stereo not shown) |  | 79% | 74% |  | 59% | 66% | 76%
7 | CC(NC(=O)OCc1ccccc1[N+](=O)[O-])C1C(=O)N2C(C(=O)OCc3ccccc3[N+](=O)[O-])=CCC12 (stereo not shown) | 72% | 82% | 23% |  |  |  | 57%
8 | CC(OC(=O)OCc1ccccc1[N+](=O)[O-])C1C(=O)N2C(C(=O)OCc3ccccc3[N+](=O)[O-])=CCC12 (stereo not shown) | 88% |  | 85% | 27% | 46% | 78% | 88%
9 | O=C(OCc1ccccc1)C1=C(SCc2ccccc2)CC2C(CO)C(=O)N12 (stereo not shown) [Benzyl] |  | 97% | 90% |  | 77% |  | 93%
